# Measured values reported in PubChem BioAssay (NCI).
#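 Test compounds were applied to cells in 96-well plates for 48 hours at 5 doses. The concentration for full growth arrest is given as TGI.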
# Assays:
# Experiment in all cases: DTP human tumour cell line panel, 48 h
# A498 renal = test system: A498 renal
# EKVX NSCLC = test system: EKVX NSCLC
# MCF7 breast = test system: MCF7 breast
# 786-0 renal = test system: 786-0 renal
# K-562 leukemia = test system: K-562 leukemia
# OVCAR-5 ovarian = test system: OVCAR-5 ovarian
# HT29 colon = test system: HT29 colon
# SK-MEL-5 melanoma = test system: SK-MEL-5 melanoma
# COLO 205 colon = test system: COLO 205 colon
# SK-MEL-2 melanoma = test system: SK-MEL-2 melanoma
# MDA-MB-231 breast = test system: MDA-MB-231 breast
# UACC-62 melanoma = test system: UACC-62 melanoma
# KM12 colon = test system: KM12 colon
# UACC-257 melanoma = test system: UACC-257 melanoma
# OVCAR-8 ovarian = test system: OVCAR-8 ovarian
# TK-10 renal = test system: TK-10 renal
# BT-549 breast = test system: BT-549 breast
# SR leukemia = test system: SR leukemia
# SF-295 CNS = test system: SF-295 CNS
# UO-31 renal = test system: UO-31 renal
# SNB-19 CNS = test system: SNB-19 CNS
# CCRF-CEM leukemia = test system: CCRF-CEM leukemia
# NCI-H226 lung = test system: NCI-H226 lung
# HS 578T breast = test system: HS 578T breast
# M14 melanoma = test system: M14 melanoma
# CAKI-1 renal = test system: CAKI-1 renal
# ACHN renal = test system: ACHN renal
# MDA-MB-435 = test system: MDA-MB-435
# IGROV1 ovarian = test system: IGROV1 ovarian
# SF-268 CNS = test system: SF-268 CNS
# NCI-H522 lung = test system: NCI-H522 lung
# LOX IMVI melanoma = test system: LOX IMVI melanoma
# HCC-2998 colon = test system: HCC-2998 colon
# SW-620 colon = test system: SW-620 colon
# MALME-3M melanoma = test system: MALME-3M melanoma
# OVCAR-3 ovarian = test system: OVCAR-3 ovarian
# HOP-62 NSCLC = test system: HOP-62 NSCLC
# NCI-H23 lung = test system: NCI-H23 lung
# DU-145 prostate = test system: DU-145 prostate
# A549 NSCLC = test system: A549 NSCLC
# T-47D breast = test system: T-47D breast
# SK-MEL-28 melanoma = test system: SK-MEL-28 melanoma
# SK-OV-3 ovarian = test system: SK-OV-3 ovarian
# OVCAR-4 ovarian = test system: OVCAR-4 ovarian
# MOLT-4 leukemia = test system: MOLT-4 leukemia
# SNB-75 CNS = test system: SNB-75 CNS
# MDA-N = test system: MDA-N
# SN12C renal = test system: SN12C renal
# NCI/ADR-RES ovarian = test system: NCI/ADR-RES ovarian
# NCI-H460 lung = test system: NCI-H460 lung
# HCT-116 colon = test system: HCT-116 colon
# HL-60(TB) leukemia = test system: HL-60(TB) leukemia
# SF-539 CNS = test system: SF-539 CNS
# RPMI-8226 leukemia = test system: RPMI-8226 leukemia
# PC-3 prostate = test system: PC-3 prostate
# U251 CNS = test system: U251 CNS
# HCT-15 colon = test system: HCT-15 colon
# RXF 393 renal = test system: RXF 393 renal
# HOP-92 NSCLC = test system: HOP-92 NSCLC
smiles,measurement,setting,value
COC(O)C(=O)c1c2c(cc3c1CCC3)CCCC2 (stereo not drawn),TGI,A498 renal,18 µM
same,TGI,EKVX NSCLC,31.1 µM
same,TGI,MCF7 breast,18 µM
same,TGI,786-0 renal,27.8 µM
same,TGI,K-562 leukemia,12.7 µM
same,TGI,OVCAR-5 ovarian,36.7 µM
same,TGI,HT29 colon,12.9 µM
same,TGI,SK-MEL-5 melanoma,9.47 µM
same,TGI,COLO 205 colon,19.3 µM
same,TGI,SK-MEL-2 melanoma,30.2 µM
same,TGI,MDA-MB-231 breast,27.6 µM
same,TGI,UACC-62 melanoma,12.3 µM
same,TGI,KM12 colon,34.1 µM
same,TGI,UACC-257 melanoma,25.9 µM
same,TGI,OVCAR-8 ovarian,25.4 µM
same,TGI,TK-10 renal,29.9 µM
same,TGI,BT-549 breast,6.41 µM
same,TGI,SR leukemia,13.9 µM
same,TGI,SF-295 CNS,26 µM
same,TGI,UO-31 renal,31.5 µM
same,TGI,SNB-19 CNS,32.8 µM
same,TGI,CCRF-CEM leukemia,6.69 µM
same,TGI,NCI-H226 lung,38 µM
same,TGI,HS 578T breast,36.2 µM
same,TGI,M14 melanoma,24.9 µM
same,TGI,CAKI-1 renal,28.3 µM
same,TGI,ACHN renal,21 µM
same,TGI,MDA-MB-435,36.7 µM
same,TGI,IGROV1 ovarian,14 µM
same,TGI,SF-268 CNS,45.5 µM
same,TGI,NCI-H522 lung,13.2 µM
same,TGI,LOX IMVI melanoma,4.95 µM
same,TGI,HCC-2998 colon,4.28 µM
same,TGI,SW-620 colon,12.3 µM
same,TGI,MALME-3M melanoma,27.8 µM
same,TGI,OVCAR-3 ovarian,14.5 µM
same,TGI,HOP-62 NSCLC,33.3 µM
same,TGI,NCI-H23 lung,31.7 µM
same,TGI,DU-145 prostate,30.5 µM
same,TGI,A549 NSCLC,40.9 µM
same,TGI,T-47D breast,44.2 µM
same,TGI,SK-MEL-28 melanoma,26.4 µM
same,TGI,SK-OV-3 ovarian,24.6 µM
same,TGI,OVCAR-4 ovarian,17.5 µM
same,TGI,MOLT-4 leukemia,14.2 µM
same,TGI,SNB-75 CNS,26 µM
same,TGI,MDA-N,30.4 µM
same,TGI,SN12C renal,19.5 µM
same,TGI,NCI/ADR-RES ovarian,61.5 µM
same,TGI,NCI-H460 lung,19.7 µM
same,TGI,HCT-116 colon,4.6 µM
same,TGI,HL-60(TB) leukemia,4.31 µM
same,TGI,SF-539 CNS,16.6 µM
same,TGI,RPMI-8226 leukemia,5.63 µM
same,TGI,PC-3 prostate,11 µM
same,TGI,U251 CNS,27.8 µM
same,TGI,HCT-15 colon,13.8 µM
O=S(=O)(Cc1nc2ccccc2s1)c1nc2ccccc2s1,TGI,A498 renal,38.6 µM
same,TGI,EKVX NSCLC,46.2 µM
same,TGI,MCF7 breast,37.1 µM
same,TGI,786-0 renal,34.1 µM
same,TGI,K-562 leukemia,32.2 µM
same,TGI,RXF 393 renal,59.6 µM
same,TGI,OVCAR-5 ovarian,39.4 µM
same,TGI,HT29 colon,37.5 µM
same,TGI,SK-MEL-5 melanoma,25.6 µM
same,TGI,COLO 205 colon,33.4 µM
same,TGI,SK-MEL-2 melanoma,37.7 µM
same,TGI,MDA-MB-231 breast,34 µM
same,TGI,UACC-62 melanoma,44.2 µM
same,TGI,KM12 colon,35.4 µM
same,TGI,UACC-257 melanoma,41.8 µM
same,TGI,OVCAR-8 ovarian,55.7 µM
same,TGI,TK-10 renal,35.7 µM
same,TGI,BT-549 breast,34.1 µM
same,TGI,SR leukemia,21 µM
same,TGI,SF-295 CNS,64.2 µM
same,TGI,UO-31 renal,31.4 µM
same,TGI,SNB-19 CNS,44 µM
same,TGI,CCRF-CEM leukemia,23.7 µM
same,TGI,NCI-H226 lung,65.6 µM
same,TGI,HS 578T breast,79.3 µM
same,TGI,M14 melanoma,30.5 µM
same,TGI,ACHN renal,33 µM
same,TGI,MDA-MB-435,34.4 µM
same,TGI,IGROV1 ovarian,39.6 µM
same,TGI,SF-268 CNS,42.2 µM
same,TGI,NCI-H522 lung,33.9 µM
same,TGI,LOX IMVI melanoma,25.6 µM
same,TGI,HCC-2998 colon,30.2 µM
same,TGI,SW-620 colon,34.6 µM
same,TGI,MALME-3M melanoma,24.9 µM
same,TGI,OVCAR-3 ovarian,28.1 µM
same,TGI,HOP-62 NSCLC,> 100 µM
same,TGI,NCI-H23 lung,38.9 µM
same,TGI,DU-145 prostate,32 µM
same,TGI,A549 NSCLC,95 µM
same,TGI,HOP-92 NSCLC,28.1 µM
same,TGI,T-47D breast,53.6 µM
same,TGI,SK-MEL-28 melanoma,30.5 µM
same,TGI,SK-OV-3 ovarian,> 100 µM
same,TGI,OVCAR-4 ovarian,31.4 µM
same,TGI,MOLT-4 leukemia,39.9 µM
same,TGI,SNB-75 CNS,41.3 µM
same,TGI,MDA-N,39.5 µM
same,TGI,SN12C renal,35.2 µM
same,TGI,NCI/ADR-RES ovarian,> 100 µM
same,TGI,NCI-H460 lung,> 100 µM
same,TGI,HCT-116 colon,27 µM
same,TGI,HL-60(TB) leukemia,24.2 µM
same,TGI,SF-539 CNS,43.7 µM
same,TGI,RPMI-8226 leukemia,37 µM
same,TGI,PC-3 prostate,32.6 µM
same,TGI,U251 CNS,34.9 µM
same,TGI,HCT-15 colon,32 µM
Cn1ncc(NCCn2cnc3c2c(=O)n(C)c(=O)n3C)c(Cl)c1=O,TGI,A498 renal,> 100 µM
same,TGI,EKVX NSCLC,> 100 µM
same,TGI,MCF7 breast,> 100 µM
same,TGI,786-0 renal,> 100 µM
same,TGI,K-562 leukemia,> 100 µM
same,TGI,RXF 393 renal,> 100 µM
same,TGI,OVCAR-5 ovarian,> 100 µM
same,TGI,HT29 colon,> 100 µM
same,TGI,SK-MEL-5 melanoma,> 100 µM
same,TGI,COLO 205 colon,> 100 µM
same,TGI,SK-MEL-2 melanoma,> 100 µM
same,TGI,MDA-MB-231 breast,> 100 µM
same,TGI,UACC-62 melanoma,> 100 µM
same,TGI,KM12 colon,> 100 µM
same,TGI,UACC-257 melanoma,> 100 µM
same,TGI,OVCAR-8 ovarian,> 100 µM
same,TGI,TK-10 renal,> 100 µM
same,TGI,BT-549 breast,> 100 µM
same,TGI,SR leukemia,> 100 µM
same,TGI,SF-295 CNS,> 100 µM
same,TGI,UO-31 renal,> 100 µM
same,TGI,SNB-19 CNS,> 100 µM
same,TGI,CCRF-CEM leukemia,> 100 µM
same,TGI,NCI-H226 lung,> 100 µM
same,TGI,HS 578T breast,> 100 µM
same,TGI,M14 melanoma,> 100 µM
same,TGI,CAKI-1 renal,> 100 µM
same,TGI,ACHN renal,> 100 µM
same,TGI,MDA-MB-435,> 100 µM
same,TGI,IGROV1 ovarian,> 100 µM
same,TGI,SF-268 CNS,> 100 µM
same,TGI,NCI-H522 lung,> 100 µM
same,TGI,LOX IMVI melanoma,> 100 µM
same,TGI,HCC-2998 colon,> 100 µM
same,TGI,SW-620 colon,> 100 µM
same,TGI,MALME-3M melanoma,> 100 µM
same,TGI,OVCAR-3 ovarian,> 100 µM
same,TGI,HOP-62 NSCLC,> 100 µM
same,TGI,NCI-H23 lung,> 100 µM
same,TGI,DU-145 prostate,> 100 µM
same,TGI,A549 NSCLC,> 100 µM
same,TGI,HOP-92 NSCLC,> 100 µM
same,TGI,T-47D breast,> 100 µM
same,TGI,SK-MEL-28 melanoma,> 100 µM
same,TGI,SK-OV-3 ovarian,> 100 µM
same,TGI,OVCAR-4 ovarian,> 100 µM
same,TGI,MOLT-4 leukemia,> 100 µM
same,TGI,MDA-N,> 100 µM
same,TGI,SN12C renal,> 100 µM
same,TGI,NCI/ADR-RES ovarian,> 100 µM
same,TGI,NCI-H460 lung,> 100 µM
same,TGI,HCT-116 colon,> 100 µM
same,TGI,HL-60(TB) leukemia,> 100 µM
same,TGI,SF-539 CNS,> 100 µM
same,TGI,RPMI-8226 leukemia,> 100 µM
same,TGI,PC-3 prostate,> 100 µM
same,TGI,U251 CNS,> 100 µM
same,TGI,HCT-15 colon,> 100 µM
